This is an account of results in PubChem BioAssay AID179 (DTP/NCI, 2004).

The structures appear in SMILES notation. Values joined by “and” are separate entries in the source; they are usually repeats but may differ in a detail not shown here. Equal entries are not always repeated. Active and inactive are the calls of the source.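 Rule for the calls: active = compounds giving half or more protection of infected cells from virus-caused growth loss, again on retest; inactive = the rest.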 Where only a bound is given, the exact number is not on record here.

In the experiment the test system is CEM cells HIV-1 protection, formazan growth assay. Put plainly: NCI AIDS Antiviral Assay. The note with it: for IC50: measured here: growth of uninfected CEM cells. In outline: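 CEM (human) cells, HIV-1 infected vs uninfected, 5-point dosing, formazan growth read-out. Retest threshold 50% protection.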

Regarding `O=C(O)c1cc(NCc2cc(O)ccc2O)ccc1O`, the EC50 (commonly the concentration that produces a half-maximal response) was greater than 25.1 µM and the IC50 (as a rule, the midpoint of a concentration-inhibition curve) was found to be 5.13 µM.
For the compound `CCCCCCCc1ccc(OC2OC(CO)C(O)C(O)C2O)cc1` (centres undefined), the EC50 is greater than 126 µM; the IC50 is 29.5 µM and 10.2 µM.
Consider `Cc1c(OC(C)C(=O)O)ccc2c(-c3ccccc3)cc(=O)oc12` (centres undefined), for which the outcome was inactive.
Same read-out and setting: as for `NC(=O)/N=C1/CCC2C3CCCC2C13`, the entry is “inactive”.
Consider `O=C1Cn2nc(C(=O)c3ccccc3C#Cc3ccccc3)c(-c3ccccc3)c2-c2ccccc21`, for which the EC50 was greater than 38.9 µM and the half-maximal inhibitory concentration (IC50) is greater than 38.9 µM.
As to `CN(O)C(=O)Cc1ccc(OCc2cccc(Cl)c2)cc1`, the EC50 was greater than 200 µM and the IC50 is greater than 200 µM.
For the compound `CCC(CC)n1cc(C(=O)NC(=O)NCCCCCOC(=O)CCCCCCCCCCC(=O)OCCCCCNC(=O)NC(=O)c2cn(C(CC)CC)c(=O)[nH]c2=O)c(=O)[nH]c1=O`, the EC50 was greater than 20.9 µM and the IC50 was greater than 20.9 µM.
For `CC1(C)OC[C@@H]([C@H](O)C2C=CC(=O)S2)O1` (some centres undefined), the outcome was inactive.
Compound `O=C(O)c1cccc2cccc(-c3c4ccc(=O)c(O)c-4oc4c(O)c(O)ccc34)c12` showed an EC50 of 29.5 µM and an IC50 of 33.1 µM.
Turning to `N#Cc1ncoc1N`, the EC50 was greater than 200 µM and the IC50 is greater than 200 µM.
In the case of `Nc1c(C(=O)O)nnc2cc(Cl)ccc12`, the EC50 was greater than 200 µM and the IC50 was found to be 66.1 µM.
The matching figures for `O=C1CC(=O)NC(=NNS(=O)(=O)c2ccc(Cl)cc2)N1`: greater than 200 µM and greater than 200 µM.
On to `CCOC(=O)c1sc(Nc2cc(Cl)ccc2Cl)nc1C`, for which the result was inactive.
Turning to `NC1CCC[C@@H](O)[C@H]1O` (some centres undefined), the EC50 is greater than 200 µM and the 50% inhibitory concentration (IC50) is greater than 200 µM.
For `O=C(Nc1c(-c2nc3ccccc3[nH]2)sc(=S)n1-c1ccccc1)c1ccccc1`, the EC50 is greater than 3.39 µM and the IC50 is greater than 3.39 µM.
For the compound `CCC1=C(C)/C(=C/c2[nH]c(CBr)c(CC)c2C)N=C1CBr`, the result was inactive.
For `O=Cc1cn(CCCCCn2cc(C=O)c3ccccc32)c2ccccc12`, the EC50 was greater than 200 µM and the half-inhibitory concentration (IC50) is greater than 200 µM.
Regarding `c1ccc(-c2c3c(nc4c2CC[C@H]4NC2=NCCN2)[C@@H](NC2=NCCN2)CC3)cc1`, the EC50 is greater than 200 µM and the 50% inhibitory concentration (IC50) was greater than 200 µM.
On to `CCN(CC)CCn1c2cc3c(cc2c(=O)c2cccnc21)OCCO3`, for which the EC50 was greater than 200 µM and the IC50 stood at 6.61 µM.
The matching figures for `CC(=O)CCC#Cc1ccccc1C(=O)C(C)=[N+]=[N-]`: greater than 50.1 µM and greater than 50.1 µM.
The matching figures for `CC(C)OP(=O)(OC(C)C)/C(=N/Nc1ccc([N+](=O)[O-])cc1)NNC(N)=O`: greater than 89.1 µM and 26.3 µM.
The matching figures for `O=C1NC(=O)C(C(=O)Nc2ccc(Cl)cc2)c2ccccc21` (centres undefined): greater than 200 µM and 129 µM.
For the compound `Cn1c(=O)c2c(-c3ccccc3)onc2n(C)c1=O`, the EC50 was greater than 200 µM and the half-maximal inhibitory concentration (IC50) came to 11 µM.
Consider `O=C(O)c1ccc(N=NC2Sc3nc4ccccc4n3C2=O)cc1` (centres undefined), for which the EC50 was greater than 200 µM and the half-inhibitory concentration (IC50) was greater than 200 µM.
For the compound `CCCCOP(=S)(OCCCC)OCCCC`, the result was inactive.
The same measure, in the same setting: as for `CC(CC/C=C/CO)C1CC(OS(=O)(=O)O)C2(O)C1(C)CCC1C3CCC(O)C(O)C3C(O)CC12O` (centres undefined), the entry is “inactive”.
As for `O=C1OC(=O)c2c1c(-c1ccccc1)nc1ccccc21`, the EC50 was greater than 107 µM and the IC50 is greater than 107 µM.
As to `O=C1c2ccccc2C2(Br)C(=O)c3ccccc3C12` (centres undefined), the outcome was inactive.
With `O=S(=O)(Nc1nnc2c3ccccc3cnn12)c1ccc(Cl)cc1S`, the concentration giving a half-maximal response (EC50) is 36.3 µM and the 50% inhibitory concentration (IC50) came out at 490 µM.
Take `CC(=O)O/C=C\OC1CCCC1(c1ccccc1)c1ccccc1` (centres undefined): the EC50 was greater than 200 µM and the half-inhibitory concentration (IC50) was found to be 1.38 µM.
With `COc1cc2cccc(OC)c(=O)c2c(O)c1OC`, the outcome was inactive.
`O=[N+]([O-])c1ccc(-c2ccc(C3=Nn4c(nnc4-c4ccc(Cl)cc4)SC3)o2)cc1`: the EC50 was greater than 1.74 µM and the IC50 was greater than 1.74 µM.
On to `CCC[CH2][Sn]([CH2]CCC)([O]C(=O)c1cc(F)ccc1F)[O][Sn]([CH2]CCC)([CH2]CCC)[O]C(=O)c1cc(F)ccc1F`, for which the EC50 was greater than 9.12 µM and the half-maximal inhibitory concentration (IC50) turned out to be 1.74 µM.
As for `COc1cc(CC2c3cc(OC)c(OC)cc3CCN2C)c(Oc2cc3c(cc2OC)-c2c(O)c(OC)cc4c2C(C3)N(C)CC4)cc1OC` (centres undefined), the outcome was inactive.
In the case of `Cc1cc(N=O)ccc1O`, the EC50 was greater than 200 µM and the half-maximal inhibitory concentration (IC50) was found to be 3.63 µM.
Regarding `N=C(N)SCN1C(=O)c2ccccc2C1=O`, the EC50 was greater than 200 µM and the IC50 is greater than 200 µM.
Consider `Oc1ccc(Cl)cc1/C=N/Nc1nnc(N/N=C/c2cc(Cl)ccc2O)c2ccccc12`, for which the EC50 is greater than 200 µM and the half-inhibitory concentration (IC50) stood at 1 µM.
On to `Cc1cn(COCCCOCC(=O)c2ccccc2)c(=O)[nH]c1=O`, for which the 50% effective concentration (EC50) was 93.3 µM and the 50% inhibitory concentration (IC50) was greater than 200 µM.
The matching figures for `CC(=O)c1nc2ccccc2n1CC(=O)c1ccc([N+](=O)[O-])cc1`: greater than 200 µM and 7.59 µM.
The matching figures for `COc1ccc(/C=C2/SC(=Nc3ccccc3)N(NC(=O)Cc3ccccc3)C2=O)c(OC)c1`: greater than 75.9 µM and greater than 75.9 µM.
The matching figures for `O=S(=O)(Nc1ncccn1)c1ccc(N=NSC2=NC=NC3=NC=NC32)cc1` (centres undefined): greater than 200 µM and 5.25 µM.
As for `CC(C)=CCC/C(C)=C/CCC1(C)C=Cc2c(c3ccccc3oc2=O)O1` (centres undefined), the result was inactive.
With `CC(C)(C)OC(=O)NC(Cc1ccc(OCc2ccccc2)cc1)C(=O)NC(COCc1ccccc1)C(=O)Oc1c(Cl)c(Cl)c(Cl)c(Cl)c1Cl` (centres undefined), the EC50 is greater than 100 µM and the IC50 worked out at 44.7 µM.
For the compound `COc1cccc(NC(=O)CSc2nnc(-c3ccc(N=Cc4ccc(Cl)cc4)cc3)o2)c1`, the EC50 is greater than 75.9 µM and the 50% inhibitory concentration (IC50) amounted to 25.1 µM.
`C/C(=N\NC(=O)c1ccncc1)c1cccc(F)c1`: the EC50 was greater than 195 µM and the 50% inhibitory concentration (IC50) was greater than 195 µM.
`N#C/C(=C\c1ccc2ccccc2c1)C(=O)c1ccccc1`: the EC50 was greater than 7.08 µM and the half-inhibitory concentration (IC50) is greater than 7.08 µM.
`CC1(C)CNC[C@@]2(C)OCCN(C(=O)OC(C)(C)C)CCO[C@]3(C)CNCC(C)(C)NC(=O)[C@@](C)(CNCC(C)(C)NC3=O)OCCN(C(=O)OC(C)(C)C)CCO[C@](C)(CNCC(C)(C)NC2=O)C(=O)N1`: the outcome was inactive.
In the case of `Nc1nc(N)c2cc(Sc3ccc4nc(N)nc(N)c4c3)ccc2n1`, the EC50 is greater than 0.2 µM and the IC50 came to 0.0708 µM.
The matching figures for `CCN(CC)CCC1CCCCN1CC(=O)N1c2ccccc2NC(=O)c2ccccc21` (centres undefined): greater than 200 µM and greater than 200 µM.
The matching figures for `O=C(Cc1ccccc1)ONC(CCCCNC(=O)OCc1ccccc1)C(=O)Nc1ccc(Cc2ccc(NC(=O)C(CCCCNC(=O)OCc3ccccc3)NC(=O)OCc3ccccc3)cc2)cc1` (centres undefined): greater than 100 µM and greater than 100 µM.
On the same counts, the results for `NC(Cc1ccc(O)cn1)C(=O)NC(C(=O)O)c1ccccc1` (centres undefined) are greater than 200 µM and greater than 200 µM.
On to `COc1ccc(Nc2c3sc4cc(OC)ccc4nc-3c3ccccc3c2=O)cc1`, for which the EC50 is greater than 100 µM and the 50% inhibitory concentration (IC50) was greater than 100 µM.
With `COc1c2occc2c(OC(C)C(=O)O)c2c(O)cc(=O)oc12` (centres undefined), the EC50 was greater than 282 µM and the IC50 is greater than 282 µM.
On to `CCOC(=O)C1=C(C)C2C3C(=O)NC(=O)C3C1(C)C1C(=O)NC(=O)C21` (centres undefined), for which the EC50 is greater than 724 µM and the IC50 was greater than 724 µM.
Turning to `O=C1C(=O)N(c2ccc(Cl)c(Cl)c2)C(=O)C(=O)C1c1nc2ccccc2o1`, the result was inactive.
For the compound `CC(CC(=O)c1ccccc1)C(Sc1ccccc1)(Sc1ccccc1)Sc1ccccc1` (centres undefined), the EC50 is greater than 200 µM and the concentration for half-maximal inhibition (IC50) was greater than 100 µM.
As for `COc1ccc(N2C(=O)C3c4[nH]c5ccc(C)cc5c4C4CCC(C(C)C)CC4C3C2=O)cc1` (centres undefined), the outcome was inactive.
Same read-out and setting: as for `CN1C(=O)CC(=O)N(c2ccccc2)c2cc(Cl)ccc21`, the entry is “inactive”.
Consider `O=C(O)[C@H]1C[C@H](O)CN1C(=O)c1ccccc1SSc1ccccc1C(=O)N1C[C@H](O)C[C@H]1C(=O)O`, for which the EC50 is greater than 200 µM and the IC50 is greater than 200 µM.
Turning to `NS(=O)(=O)c1nnc(NC(=O)c2cccc([N+](=O)[O-])c2)s1`, the EC50 is greater than 200 µM and the IC50 was greater than 200 µM.
On to `COc1ccc(CCNCc2cccc(OC)c2OC)cc1OC`, for which the outcome was inactive.
`O=C1Nc2ccc(cc2)Cc2ccc(cc2)NC(=O)N2CCN(CC2)C(=O)Nc2ccc(cc2)Cc2ccc(cc2)NC(=O)N2CCN1CC2`: the EC50 was greater than 10.7 µM and the half-maximal inhibitory concentration (IC50) is greater than 10.7 µM.
For the compound `Clc1cccc2c(N3CC3)cnnc12`, the result was inactive.
With `CCN(CC)CCCC(C)Nc1c(Sc2cnc3cc(Cl)ccc3c2NC(C)CCCN(CC)CC)cnc2cc(Cl)ccc12` (centres undefined), the EC50 is greater than 309 µM and the concentration for half-maximal inhibition (IC50) was 1.7 µM.
On to `C[C@]12CCC[C@H](O)[C@H]1C[C@H](CO)CC2`, for which the result was inactive.
Same read-out and setting: as for `COc1c(O)c2c(=O)cc(OC)c3c4c(OC)cc(=O)c5c(O)c(OC)c(C[C@H](C)O)c(c(c1CC(C)O)c23)c54` (some centres undefined), the entry is “inactive”.
On to `COc1ccc2c(c1)-c1nc(=S)n(CCN(C)C)c3ccc([N+](=O)[O-])c(c13)N2`, for which the EC50 is greater than 2 µM and the IC50 came out at 0.389 µM.
With `COc1ccc(C/C(=N/O)C(=O)NCCc2cc(Br)c(OCCCN(C)C)c(Br)c2)cc1Br`, the result was inactive.
On to `Cc1nn(C(=O)c2ccc(Cl)cc2)c2c1C(/C=C/c1ccccc1)SC(N)=N2` (centres undefined), for which the concentration for a half-maximal effect (EC50) is 60.3 µM and the IC50 was determined as 158 µM.
On the same counts, the results for `COC(=O)C1C2C/C(=N\O)C1C2` (centres undefined) are greater than 501 µM and greater than 501 µM.
On the same counts, the results for `CCOCC(CN(CC)CC)N(CC)CC(=O)Nc1c(C)cccc1C` (centres undefined) are greater than 200 µM and 4.17 µM.
Regarding `CCN(CC)Cc1cc2[nH]c3c4ccc(Cl)cc4ncc3c2cc1OC` (tested in a mixture with another compound), the EC50 was greater than 100 µM and the half-inhibitory concentration (IC50) came to 0.457 µM.
